PubChem BioAssay (NCI)
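GI50: concentration for 50% inhibition of growth. At the TGI there is no net growth.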

Assays:
Assay in all cases: NCI tumour cell line growth inhibition, 384-well format
[1] = test system: MCF7 breast
[2] = test system: NCI-H522 lung
[3] = test system: K-562 leukemia
[4] = test system: NCI-H226 lung
[5] = test system: COLO 205 colon
[6] = test system: UACC-257 melanoma
[7] = test system: HOP-92 NSCLC
[8] = test system: NCI-H322M lung
[9] = test system: HL-60(TB) leukemia
[10] = test system: NCI/ADR-RES ovarian
[11] = test system: NCI-H23 lung
[12] = test system: 786-0 renal
[13] = test system: U251 glioblastoma
[14] = test system: OVCAR-5 ovarian
[15] = test system: M14 melanoma
[16] = test system: SK-MEL-28 melanoma
[17] = test system: A549 NSCLC
[18] = test system: HCC-2998 colon
[19] = test system: T-47D breast
[20] = test system: A498 renal
[21] = test system: OVCAR-3 ovarian
[22] = test system: MOLT-4 leukemia
[23] = test system: BT-549 breast
[24] = test system: SN12C renal
[25] = test system: HOP-62 NSCLC
[26] = test system: ACHN renal
[27] = test system: CCRF-CEM leukemia
[28] = test system: SF-295 CNS
[29] = test system: OVCAR-4 ovarian
[30] = test system: UO-31 renal
[31] = test system: SK-MEL-5 melanoma
[32] = test system: RXF 393 renal
[33] = test system: OVCAR-8 ovarian
[34] = test system: RPMI-8226 leukemia
[35] = test system: NCI-H460 NSCLC
[36] = test system: UACC-62 melanoma
[37] = test system: PC-3 prostate
[38] = test system: IGROV1 ovarian
[39] = test system: MDA-MB-468 breast
[40] = test system: LOX IMVI melanoma
[41] = test system: SF-268 CNS
[42] = test system: TK-10 renal
[43] = test system: SK-MEL-2 melanoma
[44] = test system: MALME-3M melanoma
[45] = test system: CAKI-1 renal
[46] = test system: HCT-15 colon
[47] = test system: HCT-116 colon
[48] = test system: MDA-MB-435 melanoma
[49] = test system: SNB-19 CNS
[50] = test system: SK-OV-3 ovarian
[51] = test system: SR leukemia
[52] = test system: DU-145 prostate
[53] = test system: HT29 colon
[54] = test system: SW-620 colon
[55] = test system: KM12 colon
[56] = test system: SF-539 CNS
[57] = test system: MDA-MB-231 breast
[58] = test system: EKVX NSCLC
[59] = test system: SNB-75 CNS
[60] = test system: HS 578T breast

With `NCCCC[C@@H]1NC(=O)[C@H](CC(=O)O)NC(=O)CNC(=O)[C@H](CCCN=C(N)N)NC(=O)[C@@H](N)CSSC[C@@H](C(=O)O)NC(=O)[C@H](CC(=O)O)NC(=O)[C@@H]2CCCN2C(=O)CNC1=O` the GI50 [1] was over 100 µM, the TGI [1] was over 100 µM and the GI50 [2] was over 100 µM. The TGI [2] was over 100 µM, the GI50 [3] was over 100 µM and the TGI [3] was over 100 µM. For the same compound, the GI50 [4] was over 100 µM, the TGI [4] was over 100 µM and the GI50 [5] was over 100 µM. It also gave a TGI [5] of over 100 µM, a GI50 [6] of over 100 µM and a TGI [6] of over 100 µM. The GI50 [7] was over 100 µM, the TGI [7] was over 100 µM and the GI50 [8] was over 100 µM. The TGI [8] was over 100 µM, the GI50 [9] was over 100 µM and the TGI [9] was over 100 µM. The GI50 [10] was over 100 µM, the TGI [10] was over 100 µM and the GI50 [11] was over 100 µM. For the same compound, the TGI [11] was over 100 µM, the GI50 [12] was over 100 µM and the TGI [12] was over 100 µM. The GI50 [13] was over 100 µM, the TGI [13] was over 100 µM and the GI50 [14] was over 100 µM. For the same compound, the TGI [14] was over 100 µM, the GI50 [15] was over 100 µM and the TGI [15] was over 100 µM. The GI50 [16] was over 100 µM, the TGI [16] was over 100 µM and the GI50 [17] was over 100 µM. It also gave a TGI [17] of over 100 µM, a GI50 [18] of over 100 µM and a TGI [18] of over 100 µM. For the same compound, the GI50 [19] was over 100 µM, the TGI [19] was over 100 µM and the GI50 [20] was over 100 µM. It also gave a TGI [20] of over 100 µM, a GI50 [21] of over 100 µM and a TGI [21] of over 100 µM. It also gave a GI50 [22] of over 100 µM, a TGI [22] of over 100 µM and a GI50 [23] of over 100 µM. It also gave a TGI [23] of over 100 µM, a GI50 [24] of over 100 µM and a TGI [24] of over 100 µM. For the same compound, the GI50 [25] was over 100 µM, the TGI [25] was over 100 µM and the GI50 [26] was over 100 µM. For the same compound, the TGI [26] was over 100 µM, the GI50 [27] was over 100 µM and the TGI [27] was over 100 µM. For the same compound, the GI50 [28] was over 100 µM, the TGI [28] was over 100 µM and the GI50 [29] was over 100 µM. It also gave a TGI [29] of over 100 µM, a GI50 [30] of over 100 µM and a TGI [30] of over 100 µM. The GI50 [31] was over 100 µM, the TGI [31] was over 100 µM and the GI50 [32] was over 100 µM. The TGI [32] was over 100 µM, the GI50 [33] was over 100 µM and the TGI [33] was over 100 µM. For the same compound, the GI50 [34] was over 100 µM, the TGI [34] was over 100 µM and the GI50 [35] was over 100 µM. The TGI [35] was over 100 µM, the GI50 [36] was 80 µM and the TGI [36] was over 100 µM. It also gave a GI50 [37] of over 100 µM, a TGI [37] of over 100 µM and a GI50 [38] of over 100 µM. For the same compound, the TGI [38] was over 100 µM, the GI50 [39] was over 100 µM and the TGI [39] was over 100 µM. It also gave a GI50 [40] of over 100 µM, a TGI [40] of over 100 µM and a GI50 [41] of over 100 µM. It also gave a TGI [41] of over 100 µM, a GI50 [42] of over 100 µM and a TGI [42] of over 100 µM. The GI50 [43] was over 100 µM, the TGI [43] was over 100 µM and the GI50 [44] was 93.7 µM. It also gave a TGI [44] of over 100 µM, a GI50 [45] of over 100 µM and a TGI [45] of over 100 µM. It also gave a GI50 [46] of over 100 µM, a TGI [46] of over 100 µM and a GI50 [47] of over 100 µM. For the same compound, the TGI [47] was over 100 µM, the GI50 [48] was over 100 µM and the TGI [48] was over 100 µM. The GI50 [49] was over 100 µM, the TGI [49] was over 100 µM and the GI50 [50] was over 100 µM. It also gave a TGI [50] of over 100 µM, a GI50 [51] of over 100 µM and a TGI [51] of over 100 µM. It also gave a GI50 [52] of over 100 µM, a TGI [52] of over 100 µM and a GI50 [53] of over 100 µM. It also gave a TGI [53] of over 100 µM, a GI50 [54] of over 100 µM and a TGI [54] of over 100 µM. It also gave a GI50 [55] of over 100 µM, a TGI [55] of over 100 µM and a GI50 [56] of over 100 µM. It also gave a TGI [56] of over 100 µM, a GI50 [57] of over 100 µM and a TGI [57] of over 100 µM.

`COc1ncc(Nc2ncc([C@@H](C)N3CCN(S(C)(=O)=O)CC3)cc2-c2nc(C)nc(N)n2)cc1F` showed a GI50 [1] of 0.0407 µM, a TGI [1] of 27.6 µM and a GI50 [2] of 1.63 µM. It also gave a TGI [2] of 19.5 µM, a GI50 [3] of 4.54 µM and a TGI [3] of over 100 µM. It also gave a GI50 [4] of 1.3 µM, a TGI [4] of 13.7 µM and a GI50 [5] of 0.275 µM. It also gave a TGI [5] of 67.8 µM, a GI50 [58] of 0.0733 µM and a TGI [58] of 5.23 µM. It also gave a GI50 [6] of 0.488 µM, a TGI [6] of 60.5 µM and a GI50 [7] of 0.0246 µM. The TGI [7] was 1.22 µM, the GI50 [8] was 0.367 µM and the TGI [8] was 27.9 µM. For the same compound, the GI50 [10] was 3.39 µM, the TGI [10] was over 100 µM and the GI50 [11] was 1.95 µM. The TGI [11] was over 100 µM, the GI50 [59] was under 0.01 µM and the TGI [59] was 0.0481 µM. For the same compound, the GI50 [12] was 0.076 µM, the TGI [12] was 3.77 µM and the GI50 [13] was 1.01 µM. The TGI [13] was over 100 µM, the GI50 [14] was 0.16 µM and the TGI [14] was 16.8 µM. The GI50 [15] was 1.28 µM, the TGI [15] was over 100 µM and the GI50 [16] was 0.0896 µM. It also gave a TGI [16] of 6.79 µM, a GI50 [17] of 0.138 µM and a TGI [17] of 11.9 µM. For the same compound, the GI50 [18] was 1.23 µM, the TGI [18] was 38.2 µM and the GI50 [19] was under 0.01 µM. For the same compound, the TGI [19] was 0.0426 µM, the GI50 [20] was 0.0322 µM and the TGI [20] was 0.337 µM. It also gave a GI50 [21] of 0.061 µM, a TGI [21] of 3.1 µM and a GI50 [22] of 0.015 µM. For the same compound, the TGI [22] was 0.12 µM, the GI50 [23] was 0.0533 µM and the TGI [23] was 6.33 µM. It also gave a GI50 [24] of 0.0317 µM, a TGI [24] of 8.95 µM and a GI50 [25] of 1.94 µM. The TGI [25] was 83.7 µM, the GI50 [26] was 0.1 µM and the TGI [26] was over 100 µM. It also gave a GI50 [27] of 0.0891 µM, a TGI [27] of 1.55 µM and a GI50 [28] of 0.0498 µM. It also gave a TGI [28] of 2.1 µM, a GI50 [29] of 2.25 µM and a TGI [29] of over 100 µM. For the same compound, the GI50 [30] was 0.187 µM, the TGI [30] was 7.21 µM and the GI50 [31] was 1.03 µM. For the same compound, the TGI [31] was 11.9 µM, the GI50 [32] was 0.0125 µM and the TGI [32] was 0.0763 µM. For the same compound, the GI50 [33] was 1.44 µM, the TGI [33] was over 100 µM and the GI50 [34] was 2.8 µM. It also gave a TGI [34] of 8.44 µM, a GI50 [35] of 0.0711 µM and a TGI [35] of over 100 µM. For the same compound, the GI50 [36] was 0.0304 µM, the TGI [36] was 1.45 µM and the GI50 [37] was 0.0336 µM. It also gave a TGI [37] of 18.6 µM, a GI50 [38] of under 0.01 µM and a TGI [38] of 0.0433 µM. The GI50 [39] was under 0.01 µM, the TGI [39] was 0.16 µM and the GI50 [40] was 0.552 µM. It also gave a TGI [40] of 5.65 µM, a GI50 [41] of under 0.01 µM and a TGI [41] of 0.0889 µM. It also gave a GI50 [42] of 0.294 µM, a TGI [42] of 7.94 µM and a GI50 [44] of 1.04 µM. The TGI [44] was over 100 µM, the GI50 [45] was 0.023 µM and the TGI [45] was 18.1 µM. The GI50 [46] was 0.465 µM, the TGI [46] was over 100 µM and the GI50 [47] was 2.79 µM. The TGI [47] was over 100 µM, the GI50 [48] was 2.31 µM and the TGI [48] was over 100 µM. It also gave a GI50 [49] of 4.73 µM, a TGI [49] of over 100 µM and a GI50 [50] of 0.0965 µM. It also gave a TGI [50] of 10.4 µM, a GI50 [52] of 0.651 µM and a TGI [52] of over 100 µM. For the same compound, the GI50 [60] was 0.017 µM, the TGI [60] was 0.333 µM and the GI50 [53] was 0.139 µM. It also gave a TGI [53] of over 100 µM, a GI50 [54] of 3.8 µM and a TGI [54] of over 100 µM. The GI50 [55] was 1.36 µM, the TGI [55] was over 100 µM and the GI50 [56] was 0.179 µM. The TGI [56] was 4.15 µM, the GI50 [57] was 2.27 µM and the TGI [57] was over 100 µM.
